These results are taken from ChEMBL document CHEMBL1128913, “Synthesis and in vitro cytotoxicity of cryptophycins and related analogs” (Bioorg Med Chem Lett, 1996).

Structures are written as SMILES. Values after ≈ are worked out from the molar mass of the structure shown.

Common to all, as to format: functional, cell-based
One assay deals with HT-29. Briefly: Cytotoxic activity against HT-29 human colon adenocarcinoma cells.
For a further assay, the system named is B16-F10. Briefly: Cytotoxic activity against B16F10 mouse melanoma cells.
For assay [1], the system named is KB. Put plainly: Cytotoxic activity against KB human nasopharyngeal carcinoma cells.
The test system of another assay is DA-3 cell line. Put plainly: Cytotoxic activity against DA-3 mouse mammary adenocarcinoma cells.
The subject of assay [2] is KB. Briefly: Cytotoxic activity against KBV vinblastine resistant KB cells. The note with it: Homo sapiens.
In assay [3] the test system is KB. Briefly: Cytotoxic activity against Human nasopharyngeal KB cell line.

A word on the IC50: it is the midpoint of a concentration-inhibition curve. Low values mean greater potency, high ones weaker potency. Consider `COc1ccc(C[C@H]2NC(=O)/C=C/C[C@@H](C(C#Cc3ccccc3)OS(C)(=O)=O)OC(=O)[C@H](CC(C)C)OC(=O)CCNC2=O)cc1` (some centres not stated), for which the IC50 in the assay on HT-29, with B16-F10, in the assay with KB [1], with DA-3 cell line and in the assay on KB [2] was greater than 10 nM each time.

For the compound `COc1ccc(C[C@H]2NC(=O)/C=C/C[C@@H](C(O)C#Cc3ccccc3)OC(=O)[C@H](CC(C)C)OC(=O)CCNC2=O)cc1` (some centres not stated), the IC50 in the assay on HT-29, in the assay with B16-F10, with KB [1], with DA-3 cell line and in the assay with KB [2] was greater than 10 nM in each case.

Turning to `COc1ccc(C[C@H]2NC(=O)/C=C/C[C@@H](C(Br)C#Cc3ccccc3)OC(=O)[C@H](CC(C)C)OC(=O)[C@@H](C)CNC2=O)cc1` (some centres not stated), the IC50 in the assay on HT-29, with B16-F10, with KB [1], with DA-3 cell line and with KB [2] was greater than 10 nM throughout.

Consider `COc1ccc(C[C@H]2NC(=O)/C=C/C[C@@H](C(Br)C#Cc3ccccc3)OC(=O)[C@H](CC(C)C)OC(=O)CCNC2=O)cc1` (some centres not stated), for which the half-inhibitory concentration (IC50) in the assay with HT-29, in the assay with B16-F10, with KB [1], in the assay with DA-3 cell line and in the assay with KB [2] was greater than 10 nM in each case.

As to `COc1ccc(C[C@H]2NC(=O)/C=C/C[C@@H]([C@](C)(O)C#Cc3ccccc3)OC(=O)[C@H](CC(C)C)OC(=O)CCNC2=O)cc1`, the concentration for half-maximal inhibition (IC50) with HT-29, in the assay with B16-F10, in the assay on KB [1], in the assay with DA-3 cell line and in the assay with KB [2] was greater than 10 nM in each case.

As to `COc1ccc(C[C@H]2NC(=O)/C=C/C[C@@H]([C@](C)(O)/C=C\c3ccccc3)OC(=O)[C@H](CC(C)C)OC(=O)CCNC2=O)cc1`, the concentration for half-maximal inhibition (IC50) with HT-29, in the assay on B16-F10, in the assay with KB [1], in the assay on DA-3 cell line and in the assay with KB [2] was greater than 10 nM each time.

As for `COc1ccc(C[C@H]2NC(=O)/C=C/C[C@@H]([C@H](C)/C=C/c3ccccc3)OC(=O)[C@H](CC(C)C)OC(=O)[C@H](C)CNC2=O)cc1Cl` [CRYPTOPHYCIN 3], the IC50 in the assay on HT-29 came to 1 nM; in the assay with B16-F10, 2 nM; in the assay on KB [1], 2 nM; with DA-3 cell line it was 1 nM; with KB [2], 5 nM; with KB [3], 3 ng/mL (≈ 4.69 nM).

For the compound `COc1ccc(C[C@H]2NC(=O)/C=C/C[C@@H]([C@H](C)[C@H]3O[C@@H]3c3ccccc3)OC(=O)[C@H](CC(C)C)OC(=O)[C@H](C)CNC2=O)cc1Cl` [CRYPTOPHYCIN A], the IC50 is 0.002 nM in the assay on HT-29; 0.03 nM in the assay with B16-F10; 0.004 nM with KB [1]; 0.002 nM with DA-3 cell line; 0.035 nM in the assay on KB [2]; 0.005 ng/mL (≈ 0.00763 nM) with KB [3].
